Data published in US7595320B2, “Hydrazinocarbonyl-thieno[2,3-C]pyrazoles, process for preparing them, compositions containing them and use thereof” (Aventis Pharma S.A., priority 2005, dated 2009).
pIC50: −log10 of the molar value. Structures can show the parent of a compound that is named as a salt.

Tests used:
Format in all cases: biochemical
CDK2/cycline E = biological target: T1, CDK2/cycline E (Homo sapiens, UniProt P24941); experiment: CDK2/cyclineE Flashplate test in 96-well format; details: CDK2/cycline E complex, 1 μM ATP
T1 construct: made in house; host or cells: Sf21 insect cells (baculovirus coinfection)
Protocol: Two recombinant baculoviruses bearing the human sequences coding, respectively, for CDK2 and cyclineE (the latter bearing a C-terminal hexahistidine tag) are used to coinfect Sf21 insect cells. Two to three days after the start of coinfection, the cells are harvested by centrifugation and then stored at −40° C. until the time of use.
A format in streptavidin-coated 96-well plates is used to test the activity of the compounds on the kinase activity of CDK2/cycline E.
To perform this test, the biotinylated peptide substrate, a fragment of the protein pRb (biotinyl-[…]-OH), is dissolved at a concentration of 1 mM in kinase buffer (HEPES/NaOH 50 mM, NaCl 1 mM, MgCl2 5 mM, pH 7.5) in order to constitute a stock solution stored at −20° C. in the form of 110 μL aliquots. On the day of the experiment, an aliquot of this solution is thawed and diluted in kinase buffer containing 1 mM of dithiothreitol, added to the buffer extemporaneously, in order to obtain a concentration of 14.3 μM. 70 μL of this solution are added to each well of the Flashplate in order to obtain a final substrate concentration of 10 μM during the enzymatic reaction performed in a final volume of the reaction medium of 100 μL (cf. below).
Intermediate dilutions of inhibitors (products of the invention) at various concentrations are prepared in DMSO from stock solutions at 10 mM in separate tubes. Dilutions at 1000 μM, 333.3 μM, 111.1 μM, 37.03 μM, 12.35 μM, 4.11 μM and 1.37 μM are thus prepared. One μL of each of these solutions (or 1 μL of DMSO for the controls) is transferred into the wells of the test plate.
19 μl of a solution of a mixture of adenosine triphosphate (ATP) and of ATPγ^33P in kinase buffer at a total concentration of 5.26 μM of ATP and 52.6 μCi/ml of ^33P are then added to each well. The enzymatic reaction is initiated by adding 10 μL per well of a 200 nM solution of CDK2/cycline E in kinase buffer containing 1 mM of dithiothreitol (or 10 μL of kinase buffer containing 1 mM of dithiothreitol for the reaction blanks).
After addition of each of the reagents, the final volume of each well is 100 μL, the final concentration of substrate is 10 μM, the final inhibitor concentrations are 10 μM, 3.33 μM, 1.11 μM, 0.37 μM, 0.123 μM, 0.041 μM and 0.014 μM (according to the concentration of the intermediate dilution), the final ATP concentration is 1 μM, the final amount of ^33P is 1 μCi/well, and the final concentration of CDK2/cycline E complex is 20 nM.
After addition of all of the reagents, the test plate is incubated at 30° C. with orbital shaking at 650 rpm.
When the incubation is complete, the plate is washed three times with 300 μL per well of PBS (phosphate-buffered saline, pH=7.4, without calcium or magnesium, reference 10010-015, Gibco BRL). The incorporation of ^33P to the peptide is quantified by scintillation counting with a Packard Topcount.NXT machine.

Aurora1 = biological target: T2, Aurora1 (Homo sapiens, UniProt Q96GD4); experiment: Aurora1 enzymatic test, NuMA phosphorylation with [33P]ATP, Flashplate; details: Aurora-B/INCENP-C3 recombinant complex, 1 μM ATP
T2 construct: His tag (N); made in house
T2 sequence (Q96GD4 whole entry, species assumed): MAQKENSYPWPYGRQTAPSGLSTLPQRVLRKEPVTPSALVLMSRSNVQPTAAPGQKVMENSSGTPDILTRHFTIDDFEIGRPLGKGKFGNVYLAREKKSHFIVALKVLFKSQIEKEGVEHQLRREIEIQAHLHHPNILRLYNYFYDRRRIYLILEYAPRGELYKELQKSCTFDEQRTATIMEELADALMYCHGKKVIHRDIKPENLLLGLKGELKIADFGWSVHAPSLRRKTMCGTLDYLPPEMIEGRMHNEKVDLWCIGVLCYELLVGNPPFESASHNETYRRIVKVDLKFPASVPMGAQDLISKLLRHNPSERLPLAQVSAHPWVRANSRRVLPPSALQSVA
T2 sequence (Q9NQS7 835-903 partner limits assumed, species assumed): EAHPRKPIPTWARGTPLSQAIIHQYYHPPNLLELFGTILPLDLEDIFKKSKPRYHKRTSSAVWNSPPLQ
Protocol: (§1) The inhibitory effect of compounds with respect to the kinases Aurora1 and Aurora2 is determined by means of an enzymatic test using radioactivity detection.
(§2) The kinase activity of Aurora1 and Aurora2 is evaluated via the phosphorylation of the substrate Numa-histidine in the presence of radiolabelled ATP ([^33P]ATP) using 96-well Flashplate plates in which the nickel chelate is bound to the surface of the microplate. The amount of ^33P phosphate incorporated into the NuMA substrate is proportional to the activity of the enzyme Aurora1 or Aurora2.
Aurora1: Aurora-B/INCENP-C3 recombinant complex, purified to about 50%, the N-terminal end of Aurora-B of which has been labeled with histidine.
(§3) NuMA (nuclear protein that combines with the mitotic apparatus): 424-amino acid fragment, expressed in E. coli, the N-terminal end of which has been labeled with histidine, and used as substrate for the two Aurora enzymes.
(§4) The microplates used are 96-well Flash-Plate plates, nickel chelate (Perkin-Elmer, model SMP107).
(§5) The products to be evaluated are incubated in a reaction volume of 100 μL per well, in the presence of 10 nM of Aurora1 or Aurora2, 500 nM of NuMA substrate in a buffer composed of 50 mM Tris/HCl (pH 7.5), 50 mM NaCl, 5 mM MgCl2 (Aurora-B) or 10 mM MgCl2 (Aurora-A) and 1 mM DTT, at 37° C.
(§6) 80 μL of enzyme/substrate incubation buffer are distributed in each well, followed by 10 μL of product to be evaluated, at variable concentrations. The reaction is initiated by adding 1 μM final of ATP containing 0.2 μCi of [^33P]ATP (10 μL). After incubating for 30 minutes, the reaction is quenched by simple removal of the reaction buffer and each well is washed twice with 300 μl of Tris/HCl buffer. The radioactivity is then measured in each well using a Packard, Top-Count model scintillation machine.
(§7) The control enzymatic activity of Aurora is expressed by the number of counts per minute obtained over 30 minutes after subtracting the background noise (reaction mixture containing no enzyme). The evaluation of the various test products is expressed as a percentage of inhibition of the Aurora activity relative to the control.

Aurora2 = biological target: T3, Aurora2 (Homo sapiens, UniProt O14965); experiment: Aurora2 enzymatic test, NuMA phosphorylation with [33P]ATP, Flashplate; details: whole recombinant protein, 1 μM ATP
T3 construct: Aurora2: whole recombinant protein comprising an N-terminal histidine tail; His tag (N); made in house; host or cells: E. coli
T3 sequence (O14965 1-403): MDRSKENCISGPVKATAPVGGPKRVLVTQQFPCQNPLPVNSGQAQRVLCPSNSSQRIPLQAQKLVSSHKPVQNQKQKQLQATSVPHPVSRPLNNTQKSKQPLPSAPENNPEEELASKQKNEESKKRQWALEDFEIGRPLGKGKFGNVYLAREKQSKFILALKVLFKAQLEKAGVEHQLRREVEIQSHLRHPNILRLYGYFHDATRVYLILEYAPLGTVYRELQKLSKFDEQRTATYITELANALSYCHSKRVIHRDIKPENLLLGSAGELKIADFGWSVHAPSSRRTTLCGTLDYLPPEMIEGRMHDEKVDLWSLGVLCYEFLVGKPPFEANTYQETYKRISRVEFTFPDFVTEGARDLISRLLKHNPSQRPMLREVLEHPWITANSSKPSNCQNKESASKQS
Protocol: as §1, §2
Aurora2: whole recombinant protein comprising an N-terminal histidine tail, was expressed in E. coli and purified to more than 82%.
as §3, §4, §5, §6, §7

Tie2 = biological target: T4, Tie2 (Homo sapiens, UniProt Q02763); experiment: Tie2 kinase test, phosphorylation of PLC with GST-Tie2; details: GST-Tie2 intracellular domain 776-1124
T4 construct: amino acids of the intracellular domain 776-1124; made in house; host or cells: baculovirus expression (pFastBacGT vector)
T4 sequence (Q02763 776-1124): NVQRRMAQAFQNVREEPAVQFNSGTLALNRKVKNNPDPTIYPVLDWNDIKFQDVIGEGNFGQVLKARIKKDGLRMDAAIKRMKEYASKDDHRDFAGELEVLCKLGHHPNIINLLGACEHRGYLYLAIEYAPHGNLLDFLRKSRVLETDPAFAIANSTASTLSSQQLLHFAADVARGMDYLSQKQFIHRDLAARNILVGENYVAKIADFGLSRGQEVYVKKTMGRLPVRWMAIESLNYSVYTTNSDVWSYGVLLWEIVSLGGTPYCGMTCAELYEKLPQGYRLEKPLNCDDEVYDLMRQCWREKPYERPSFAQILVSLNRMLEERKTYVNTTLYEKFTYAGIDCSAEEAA
Protocol: The coding sequence of human Tie2 corresponding to the amino acids of the intracellular domain 776-1124 was generated by PCR using the cDNA isolated from a human placenta as a model. This sequence was introduced into a pFastBacGT baculovirus expression vector in the form of a GST fusion protein.
The inhibitory effect of the molecules is determined in a test of phosphorylation of PLC with Tie2 in the presence of GST-Tie2 purified to about 80% homogeneity. The substrate is composed of the SH2-SH3 fragments of PLC expressed in the form of a GST fusion protein.
The kinase activity of Tie2 is measured in a MOPS 20 mM pH 7.2 buffer, containing 10 mM MgCl2, 10 mM MnCl2, 1 mM DTT, 10 mM of glycerophosphate. In a 96-well FlashPlate plate maintained on ice, a reaction mixture is deposited, composed of 70 μL of kinase buffer containing 100 ng of enzyme GST-Tie2 per well. Next, 10 μL of the test molecule diluted in DMSO to a maximum concentration of 10% are added. For a given concentration, each measurement is performed four times. The reaction is initiated by adding 20 μL of solution containing 2 μg of GST-PLC, 2 μm of cold ATP and 1 μCi of ^33P[ATP]. After incubation for one hour at 37° C., the reaction is stopped by adding 1 volume (100 μl) of 200 mM EDTA. After removal of the incubation buffer, the wells are washed three times with 300 μL of PBS. The radioactivity is measured on a MicroBeta1450 Wallac.
The inhibition of the Tie2 activity is calculated and expressed as a percentage of inhibition relative to the control activity determined in the absence of compound.

Structure (SMILES)	pIC50 (CDK2/cycline E)	pIC50 (Aurora1)	pIC50 (Aurora2)	pIC50 (Tie2)
CCN(NC(=O)c1cc2c(NC(=O)c3ccc(N4CCN(C)CC4)cc3)n[nH]c2s1)c1ccccc1C [Example 39, N-[5-(N′-ethyl-N′-o-tolylhydrazinocarbonyl)-1H-thieno[2,3-c]pyrazol-3-yl]-4-(4-methylpiperazin-1-yl)benzamide]	7.28	7.82	7.57	7.66
CC1CN(Cc2ccc(C(=O)Nc3n[nH]c4sc(C(=O)NN(C)c5ccccc5)cc34)cc2)CCN1 (stereo not drawn) [Example 14a, N-[5-(N′-methyl-N′-phenylhydrazinocarbonyl)-1H-thieno[2,3-c]pyrazol-3-yl]-4-(3-methylpiperazin-1-ylmethyl)benzamide]	6.78	6.80	7.72	6.13
CN(NC(=O)c1cc2c(NC(=O)c3ccc(CN4CCCC4)cc3)n[nH]c2s1)c1ccccc1 [Example 18a, N-[5-(N′-methyl-N′-phenylhydrazinocarbonyl)-1H-thieno[2,3-c]pyrazol-3-yl]-4-pyrrolidin-1-ylmethylbenzamide]	6.74	6.91	7.85	6.20
CC1CN(Cc2ccc(C(=O)Nc3n[nH]c4sc(C(=O)NN(C)c5ccc(Cl)cc5)cc34)cc2)CCN1 (stereo not drawn) [Example 14b, N-{5-[N′-(4-chlorophenyl)-N′-methylhydrazinocarbonyl]-1H-thieno[2,3-c]pyrazol-3-yl}-4-(3-methylpiperazin-1-ylmethyl)benzamide]	7.34	6.83	7.36	6.37
COc1ccc(C(=O)Nc2n[nH]c3sc(C(=O)NNc4ccccn4)cc23)cc1 [Example 27, 4-methoxy-N-[5-(N′-pyrid-2-ylhydrazinocarbonyl)-1H-thieno[2,3-c]pyrazol-3-yl]benzamide]	6.17	7.29	7.51	6.53
CN1CCN(c2ccc(C(=O)Nc3n[nH]c4sc(C(=O)NN(C)c5ccccc5)cc34)cc2)CC1 [Example 35, N-[5-(N′-methyl-N′-phenylhydrazinocarbonyl)-1H-thieno[2,3-c]pyrazol-3-yl]-4-(4-methylpiperazin-1-yl)benzamide]	6.92	8.40	8.40	7.54
CCN(NC(=O)c1cc2c(NC(=O)c3ccc(N4CCN(C)CC4)cc3)n[nH]c2s1)c1ccccc1 [Example 33, N-[5-(N′-ethyl-N′-phenylhydrazinocarbonyl)-1H-thieno[2,3-c]pyrazol-3-yl]-4-(4-methylpiperazin-1-yl)benzamide]	7.00	7.89	–	8.10

Continued by rising pIC50 (CDK2/cycline E), values first:

pIC50 (CDK2/cycline E)	pIC50 (Aurora1)	pIC50 (Aurora2)	pIC50 (Tie2)	Structure (SMILES)
6.50	6.60	7.60	6.48	CC(C)N(Cc1ccc(C(=O)Nc2n[nH]c3sc(C(=O)NN(C)c4ccccc4)cc23)cc1)C(C)C [Example 25, 4-[(diisopropylamino)methyl]-N-[5-(N′-methyl-N′-phenylhydrazinocarbonyl)-1H-thieno[2,3-c]pyrazol-3-yl]benzamide trifluoroacetate]
6.54	8.10	–	7.12	CN1CCCN(c2ccc(C(=O)Nc3n[nH]c4sc(C(=O)NN(C)c5ccccc5)cc34)cc2)CC1 [Example 47, 4-(4-methyl[1,4]diazepan-1-yl)-N-[5-(N′-methyl-N′-phenylhydrazinocarbonyl)-1H-thieno[2,3-c]pyrazol-3-yl]benzamide]
6.82	6.85	7.64	6.17	CN(NC(=O)c1cc2c(NC(=O)c3ccc(CN4CCNCC4)cc3)n[nH]c2s1)c1ccccc1 [Example 13a, N-[5-(N′-methyl-N′-phenylhydrazinocarbonyl)-1H-thieno[2,3-c]pyrazol-3-yl]-4-piperazin-1-ylmethylbenzamide]
7.03	6.47	7.46	6.64	CN(NC(=O)c1cc2c(NC(=O)c3ccc(CN4CCCCC4)cc3)n[nH]c2s1)c1ccc(Cl)cc1 [Example 17b, N-[5-(N′-(4-chlorophenyl)-N′-methylhydrazinocarbonyl)-1H-thieno[2,3-c]-pyrazol-3-yl]-4-piperidin-1-ylmethylbenzamide]
